# Laboratory results taken from ChEMBL document CHEMBL1129760, “A topliss tree analysis of the HIV-protease inhibitory activity of 6-phenyl-4-hydroxy-pyran-2-ones” (Bioorg Med Chem Lett, 1996).
# Biological target: Human immunodeficiency virus type 1 protease (Human immunodeficiency virus 1, UniProt Q72874)
# Test: Inhibitory activity against purified HIV-1 protease (BH10) at a pH of 4.7 and a final enzyme concentration of 0.45-1.1 nM
row,Structure (SMILES),IC50
1,COC(=O)c1cc(-c2cc(O)c(Sc3ccccc3C(C)C)c(=O)o2)ccc1O,0.062 µM
2,CC(C)c1ccccc1Sc1c(O)cc(-c2ccc([N+](=O)[O-])cc2)oc1=O,0.191 µM
3,CC(C)c1ccccc1Sc1c(O)cc(-c2cccc(-c3ccccc3)c2)oc1=O,0.038 µM
4,Cc1ccccc1-c1cc(O)c(Sc2ccccc2C(C)C)c(=O)o1,1.34 µM
5,CC(C)c1ccccc1Sc1c(O)cc(-c2ccc(C#N)cc2)oc1=O,0.205 µM
6,CCc1cccc(-c2cc(O)c(Sc3ccccc3C(C)C)c(=O)o2)c1,0.262 µM
7,CCOC(=O)c1ccc(-c2cc(O)c(Sc3ccccc3C(C)C)c(=O)o2)cc1,0.035 µM
8,CC(C)c1ccccc1Sc1c(O)cc(-c2ccc(Cl)c(Cl)c2)oc1=O,0.022 µM
9,COC(=O)c1cccc(-c2cc(O)c(Sc3ccccc3C(C)C)c(=O)o2)c1,0.08 µM
10,COc1ccccc1-c1cc(O)c(Sc2ccccc2C(C)C)c(=O)o1,1.42 µM
11,CC(C)c1ccccc1Sc1c(O)cc(-c2ccc(Cl)cc2)oc1=O,0.076 µM
12,CC(C)c1ccccc1Sc1c(O)cc(-c2ccc(C(N)=O)cc2)oc1=O,0.135 µM
13,CC(C)c1ccccc1Sc1c(O)cc(-c2cccc(O)c2)oc1=O,0.089 µM
14,CC(C)c1ccccc1Sc1c(O)cc(-c2cccc(C(=O)O)c2)oc1=O,0.151 µM
15,Cc1cccc(-c2cc(O)c(Sc3ccccc3C(C)C)c(=O)o2)c1,0.014 µM
16,CCOC(=O)c1cccc(-c2cc(O)c(Sc3ccccc3C(C)C)c(=O)o2)c1,1.93 µM

row,Structure (SMILES),IC50
1,CC(C)c1ccccc1Sc1c(O)cc(-c2cccc(Cl)c2)oc1=O,0.023 µM
2,COc1ccc(-c2cc(O)c(Sc3ccccc3C(C)C)c(=O)o2)cc1,0.083 µM
3,CCOC(=O)c1cc(-c2cc(O)c(Sc3ccccc3C(C)C)c(=O)o2)ccc1O,0.148 µM
4,CC(C)c1ccccc1Sc1c(O)cc(-c2cccc(N(C)C)c2)oc1=O,0.114 µM
5,CC(C)c1ccccc1Sc1c(O)cc(-c2cccc([N+](=O)[O-])c2)oc1=O,0.067 µM
6,CC(C)c1ccccc1Sc1c(O)cc(-c2ccc(O)c(C(=O)O)c2)oc1=O,0.292 µM
7,Cc1ccc(-c2cc(O)c(Sc3ccccc3C(C)C)c(=O)o2)cc1,0.059 µM
8,CC(C)c1ccccc1Sc1c(O)cc(-c2cc(Cl)cc(Cl)c2)oc1=O,0.026 µM
9,CC(C)c1ccccc1Sc1c(O)cc(-c2ccc(O)cc2)oc1=O,0.054 µM
10,CC(C)(C)NC(=O)[C@@H]1CCCCN1C[C@@H](O)[C@H](Cc1ccccc1)NC(=O)[C@H](CC(N)=O)NC(=O)c1ccc2ccccc2n1,0.01 µM
11,CC(C)c1ccccc1Sc1c(O)cc(-c2cccc(C(F)(F)F)c2)oc1=O,0.076 µM
12,CC(C)c1ccccc1Sc1c(O)cc(-c2ccc(C(=O)O)cc2)oc1=O,0.068 µM
13,CC(C)c1ccccc1Sc1c(O)cc(-c2ccc(F)cc2)oc1=O,0.124 µM
14,CC(C)c1ccccc1Sc1c(O)cc(-c2ccccc2Cl)oc1=O,0.225 µM
15,Cc1cc(C)cc(-c2cc(O)c(Sc3ccccc3C(C)C)c(=O)o2)c1,0.015 µM
